Key:
TTBK2 kinase domain = biological target: T1, TTBK2 kinase domain (Homo sapiens, UniProt Q6IQ55); assay: Thermal shift assay; type: binding; conditions: kinase domain 2 µM, inhibitor 10 µM
T1 construct: Either the TTBK1 or TTBK2 kinase domain at 2 µM
Description: Either the TTBK1 or TTBK2 kinase domain at 2 µM in 10 mM HEPES pH 7.5 and 500 mM NaCl was mixed with the inhibitors at 10 µM in the presence of SyPRO orange dye (Invitrogen). A Real-Time PCR Mx3005p machine (Stratagene) was used to measure the fluorescence spectrum. The Tm shift assays and data evaluation for melting temperatures were performed according to the previously described protocol.

CIT = biological target: T2, CIT (Homo sapiens, UniProt O14578); assay: DiscoverX scanMAX binding assay; conditions: 1 μM
T2 construct: purchased Eurofins (radiometric) / Eurofins DiscoverX scanMAX / Reaction Biology / SignalChem
T2 sequence (O14578 whole entry): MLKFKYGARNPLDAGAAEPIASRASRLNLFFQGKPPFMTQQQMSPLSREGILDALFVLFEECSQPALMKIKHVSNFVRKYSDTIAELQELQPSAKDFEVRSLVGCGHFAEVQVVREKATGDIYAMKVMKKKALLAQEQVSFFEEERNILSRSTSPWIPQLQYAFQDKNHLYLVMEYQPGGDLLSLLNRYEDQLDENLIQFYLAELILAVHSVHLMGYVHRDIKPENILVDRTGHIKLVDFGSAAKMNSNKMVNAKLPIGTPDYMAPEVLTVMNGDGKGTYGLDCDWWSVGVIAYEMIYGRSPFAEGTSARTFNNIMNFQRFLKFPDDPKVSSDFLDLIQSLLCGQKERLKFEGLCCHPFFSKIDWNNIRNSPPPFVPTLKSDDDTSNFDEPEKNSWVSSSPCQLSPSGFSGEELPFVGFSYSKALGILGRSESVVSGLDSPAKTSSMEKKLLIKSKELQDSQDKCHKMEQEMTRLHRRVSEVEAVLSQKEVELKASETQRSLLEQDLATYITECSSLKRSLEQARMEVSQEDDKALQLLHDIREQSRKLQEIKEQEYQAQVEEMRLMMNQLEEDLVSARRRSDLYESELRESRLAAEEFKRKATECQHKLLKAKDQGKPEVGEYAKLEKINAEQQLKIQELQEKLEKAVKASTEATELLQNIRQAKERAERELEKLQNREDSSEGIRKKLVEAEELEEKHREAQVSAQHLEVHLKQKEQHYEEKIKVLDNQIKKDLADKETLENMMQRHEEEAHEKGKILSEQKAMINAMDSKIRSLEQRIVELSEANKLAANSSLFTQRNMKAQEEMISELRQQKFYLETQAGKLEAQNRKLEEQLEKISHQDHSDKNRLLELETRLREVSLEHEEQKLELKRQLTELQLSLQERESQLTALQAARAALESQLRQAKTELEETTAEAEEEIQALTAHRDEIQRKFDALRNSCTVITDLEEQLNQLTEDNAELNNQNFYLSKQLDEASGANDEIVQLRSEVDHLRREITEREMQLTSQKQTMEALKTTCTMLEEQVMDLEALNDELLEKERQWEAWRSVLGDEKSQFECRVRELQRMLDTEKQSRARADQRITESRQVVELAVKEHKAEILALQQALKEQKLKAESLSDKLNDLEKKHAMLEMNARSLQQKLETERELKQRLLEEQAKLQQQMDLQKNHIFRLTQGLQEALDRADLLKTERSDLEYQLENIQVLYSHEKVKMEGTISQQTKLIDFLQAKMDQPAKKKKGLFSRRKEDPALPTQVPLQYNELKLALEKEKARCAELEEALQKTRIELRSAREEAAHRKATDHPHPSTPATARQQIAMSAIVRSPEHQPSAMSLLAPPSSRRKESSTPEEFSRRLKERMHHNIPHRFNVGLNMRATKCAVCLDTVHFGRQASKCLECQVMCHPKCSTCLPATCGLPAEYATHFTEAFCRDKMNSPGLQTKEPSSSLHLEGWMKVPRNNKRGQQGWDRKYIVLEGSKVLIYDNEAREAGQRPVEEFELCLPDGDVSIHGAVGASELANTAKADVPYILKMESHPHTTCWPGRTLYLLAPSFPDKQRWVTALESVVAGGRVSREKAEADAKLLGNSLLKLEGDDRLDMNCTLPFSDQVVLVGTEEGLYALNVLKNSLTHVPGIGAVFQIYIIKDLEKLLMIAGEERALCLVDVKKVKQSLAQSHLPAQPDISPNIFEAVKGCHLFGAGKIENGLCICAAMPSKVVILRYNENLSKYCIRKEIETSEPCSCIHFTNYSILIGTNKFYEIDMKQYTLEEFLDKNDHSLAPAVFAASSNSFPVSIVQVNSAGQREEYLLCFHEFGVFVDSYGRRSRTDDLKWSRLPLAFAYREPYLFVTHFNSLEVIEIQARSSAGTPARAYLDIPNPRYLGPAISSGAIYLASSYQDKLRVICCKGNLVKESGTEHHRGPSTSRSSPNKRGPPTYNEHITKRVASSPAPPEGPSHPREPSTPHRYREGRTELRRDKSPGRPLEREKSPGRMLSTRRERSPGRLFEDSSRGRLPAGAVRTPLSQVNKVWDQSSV
Text: (§1) This panel includes 403 wild-type (WT) human kinases but not TTBK1/2. […] Substantial overlap between the MRC and DiscoverX scanMAX kinase panels allows the comparison of results for the same kinases in two different assay formats (enzymatic versus binding, respectively) at the same concentration. Selectivity results are included in two columns within Table 1. […] The rightmost column converts this selectivity score into the number of kinases with a PoC < 10 in the scanMAX panel.
(§2) The Eurofins DiscoverX Corporation scanMAX assay platform was employed to assess the selectivity of specific analogs at a single concentration (1 µM). As described previously, this assay platform profiles a compound against 403 wild-type human kinases and delivers percent of control (PoC) values. These percent of control values are included in Table 1 and corresponding kinome tree diagrams as well as tables for each analog included in Fig. S1.

PIP5K1C = biological target: T3, PIP5K1C (Homo sapiens, UniProt O60331); assay: DiscoverX scanMAX binding assay; conditions: 1 μM
T3 construct: purchased Eurofins (radiometric) / Eurofins DiscoverX scanMAX / Reaction Biology / SignalChem
T3 sequence (O60331 whole entry): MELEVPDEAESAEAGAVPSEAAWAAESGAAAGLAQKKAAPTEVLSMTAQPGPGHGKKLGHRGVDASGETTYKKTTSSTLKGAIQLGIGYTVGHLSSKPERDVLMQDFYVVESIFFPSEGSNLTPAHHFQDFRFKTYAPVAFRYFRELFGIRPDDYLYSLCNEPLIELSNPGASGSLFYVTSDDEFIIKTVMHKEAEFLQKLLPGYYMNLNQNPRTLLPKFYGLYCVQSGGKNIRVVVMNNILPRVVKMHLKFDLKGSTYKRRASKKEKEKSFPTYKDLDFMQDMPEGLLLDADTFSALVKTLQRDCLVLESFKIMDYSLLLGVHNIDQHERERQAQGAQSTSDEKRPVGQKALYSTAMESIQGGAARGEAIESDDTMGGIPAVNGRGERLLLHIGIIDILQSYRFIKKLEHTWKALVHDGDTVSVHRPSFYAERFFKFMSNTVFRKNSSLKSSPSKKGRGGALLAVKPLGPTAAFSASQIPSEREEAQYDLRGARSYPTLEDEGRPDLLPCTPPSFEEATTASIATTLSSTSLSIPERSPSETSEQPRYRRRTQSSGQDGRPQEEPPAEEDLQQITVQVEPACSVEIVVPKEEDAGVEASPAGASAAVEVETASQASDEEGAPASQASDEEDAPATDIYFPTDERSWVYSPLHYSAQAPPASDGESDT
Text: as §1, §2

TAOK2 = biological target: T4, TAOK2 (Homo sapiens, UniProt Q9UL54); assay: DiscoverX scanMAX binding assay; conditions: 1 μM
T4 construct: purchased Eurofins
T4 sequence (Q9UL54 1-1235): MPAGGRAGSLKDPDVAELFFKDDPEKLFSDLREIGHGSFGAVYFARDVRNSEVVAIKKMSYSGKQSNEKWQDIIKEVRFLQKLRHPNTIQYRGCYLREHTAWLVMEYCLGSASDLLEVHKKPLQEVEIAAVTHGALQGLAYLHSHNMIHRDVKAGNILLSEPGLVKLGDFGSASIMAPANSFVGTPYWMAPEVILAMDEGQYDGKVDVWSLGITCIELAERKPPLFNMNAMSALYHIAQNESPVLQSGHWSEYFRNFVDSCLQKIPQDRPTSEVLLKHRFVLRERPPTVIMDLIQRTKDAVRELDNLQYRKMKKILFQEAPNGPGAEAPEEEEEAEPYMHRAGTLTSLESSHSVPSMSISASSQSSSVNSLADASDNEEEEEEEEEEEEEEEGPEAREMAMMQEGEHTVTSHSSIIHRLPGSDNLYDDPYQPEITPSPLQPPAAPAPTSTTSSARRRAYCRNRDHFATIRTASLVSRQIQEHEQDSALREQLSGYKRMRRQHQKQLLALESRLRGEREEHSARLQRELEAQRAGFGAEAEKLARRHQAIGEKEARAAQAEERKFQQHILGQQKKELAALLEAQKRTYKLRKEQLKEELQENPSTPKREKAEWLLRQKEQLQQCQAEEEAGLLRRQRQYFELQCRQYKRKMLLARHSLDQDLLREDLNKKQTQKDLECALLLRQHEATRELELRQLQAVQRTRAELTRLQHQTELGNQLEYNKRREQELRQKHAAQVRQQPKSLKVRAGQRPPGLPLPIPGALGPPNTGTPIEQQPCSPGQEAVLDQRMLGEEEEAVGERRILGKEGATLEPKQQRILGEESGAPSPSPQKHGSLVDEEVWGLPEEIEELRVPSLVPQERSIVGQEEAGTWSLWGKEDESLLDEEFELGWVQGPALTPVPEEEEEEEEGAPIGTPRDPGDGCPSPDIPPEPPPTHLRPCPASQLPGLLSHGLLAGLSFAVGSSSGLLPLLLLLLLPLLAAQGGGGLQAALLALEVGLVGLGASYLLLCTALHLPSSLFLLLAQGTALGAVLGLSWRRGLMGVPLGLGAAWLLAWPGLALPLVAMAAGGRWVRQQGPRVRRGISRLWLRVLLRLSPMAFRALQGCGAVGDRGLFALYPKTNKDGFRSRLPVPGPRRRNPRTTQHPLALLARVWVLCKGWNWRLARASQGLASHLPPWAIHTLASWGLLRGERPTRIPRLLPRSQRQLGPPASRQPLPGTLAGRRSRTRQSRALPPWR
Text: as §1, §2

TAOK3 = biological target: T5, TAOK3 (Homo sapiens, UniProt Q9H2K8); assay: DiscoverX scanMAX binding assay; conditions: for TAOK3 % control at 1000nM: 1 μM
T5 construct: purchased Eurofins (radiometric) / Eurofins DiscoverX scanMAX / Reaction Biology / SignalChem
T5 sequence (Q9H2K8 1-898): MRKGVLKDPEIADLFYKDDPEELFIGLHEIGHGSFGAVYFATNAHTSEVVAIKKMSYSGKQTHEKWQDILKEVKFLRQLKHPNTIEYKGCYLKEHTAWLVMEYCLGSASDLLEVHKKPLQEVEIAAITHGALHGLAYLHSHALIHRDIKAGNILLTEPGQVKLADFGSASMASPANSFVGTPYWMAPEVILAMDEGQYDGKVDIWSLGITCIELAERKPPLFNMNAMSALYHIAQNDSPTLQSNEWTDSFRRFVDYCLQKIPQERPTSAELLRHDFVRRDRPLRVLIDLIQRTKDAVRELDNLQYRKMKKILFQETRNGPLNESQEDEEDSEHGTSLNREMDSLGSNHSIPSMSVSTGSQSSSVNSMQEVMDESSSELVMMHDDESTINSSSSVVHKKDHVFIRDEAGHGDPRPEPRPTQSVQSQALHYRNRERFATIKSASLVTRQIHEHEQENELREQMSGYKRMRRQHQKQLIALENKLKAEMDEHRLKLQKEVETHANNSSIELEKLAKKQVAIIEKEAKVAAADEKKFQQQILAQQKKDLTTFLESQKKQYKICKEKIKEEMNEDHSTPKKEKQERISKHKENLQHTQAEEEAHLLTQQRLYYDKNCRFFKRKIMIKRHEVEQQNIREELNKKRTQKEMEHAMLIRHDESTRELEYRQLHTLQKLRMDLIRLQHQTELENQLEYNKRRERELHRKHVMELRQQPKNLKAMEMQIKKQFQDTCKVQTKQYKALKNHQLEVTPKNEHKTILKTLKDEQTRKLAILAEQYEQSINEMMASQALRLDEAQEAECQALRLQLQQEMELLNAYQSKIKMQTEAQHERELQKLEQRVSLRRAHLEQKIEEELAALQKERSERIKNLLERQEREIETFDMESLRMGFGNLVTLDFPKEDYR
Text: as §1, §2

T1 sequence (Q6IQ55 21-284 limits assumed): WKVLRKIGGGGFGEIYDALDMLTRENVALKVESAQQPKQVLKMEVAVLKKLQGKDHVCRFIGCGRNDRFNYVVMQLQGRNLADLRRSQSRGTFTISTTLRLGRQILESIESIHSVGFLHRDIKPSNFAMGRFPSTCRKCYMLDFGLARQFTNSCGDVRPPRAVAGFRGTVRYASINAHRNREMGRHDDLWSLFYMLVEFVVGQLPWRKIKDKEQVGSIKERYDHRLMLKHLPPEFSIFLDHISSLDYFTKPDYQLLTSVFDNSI

SMILES	ΔTm TTBK2 (TTBK2 kinase domain)	CIT (CRIK) % control at 1000nM / DiscoverX PoC value (CIT)	PIP5K1C % control at 1000nM / DiscoverX PoC value (PIP5K1C)	TAOK2 % control at 1000nM / DiscoverX PoC value (TAOK2)	TAOK3 % control at 1000nM (TAOK3)	ΔTm at 10 µM (TTBK2 kinase domain)	kinase binding, percent of control at 1 µM (TAOK3; read-out: TAOK3 % control at 1000nM)
CC(C)(O)C#Cc1ccc2[nH]cc(-c3ccnc(N)n3)c2c1 [Compound 3]	6.2 °C	0 % control	0.4 % control	1.3 % control	0.4 % control	–	–
CC(C)(O)C#Cc1ccc2[nH]c3c(c2c1)-c1nc(N)ncc1CC3 [Compound 1]	5.6 °C	0 % control	0.5 % control	1.5 % control	1.5 % control	–	–
CC(C)(O)C#Cc1ccc2[nH]c3c(c2c1)-c1nc(N)ncc1CCC3 [AMG28, reference compound]	–	1.3 % control	3.1 % control	3.5 % control	–	6.2 °C	1.8%

— paper PMC10104807, “Modulation of tau tubulin kinases (TTBK1 and TTBK2) impacts ciliogenesis” (Scientific Reports, 2023)
